From patent US10745452B2, “Combination of antimicrobial peptides and antibiotic drugs for treating diseases” (OMNIX MEDICAL LTD., priority 2016, dated 2020)
“Also recorded” adds a separate entry of the source. Like-named read-outs stand apart in the source and are kept apart here. Ends that are not written are not given here. Peptide text beside a SMILES is read from it.

Experiments:
Format in all cases: cell-based
[1] = system: Salmonella serotype Typhimurium (ATCC 700408); experiment: microbe, parasite or virus in culture; conditions: for bacterial growth (OD600), combination: simultaneously; for bacterial growth (OD600), combination / bacterial growth (OD600), stand-alone treatment: 17-20 h; for MIC: Salmonella
[2] = system: Salmonella serotype Typhimurium (ATCC 700408); experiment: microbe, parasite or virus in culture; conditions: for MIC: Salmonella; for bacterial growth (OD600), stand-alone treatment / bacterial growth (OD600), combination: 17-20 h; for bacterial growth (OD600), combination: simultaneously
Protocol: FIG. 1 presents: Salmonella serotype Typhimurium (ATCC 700408), a Multi-Drug Resistant (MDR) strain of bacteria were cultured in the presence of either OMN6 or Kanamycin KAN. […] The bacteria were incubated for 17-20 hours and the growth of the bacteria was continuously monitored via spectrophotometry at 600 nm (OD600). As bacterial growth progresses, OD600 values rise, and where the growth is inhibited OD600 values remain constant.
(§1) The bacteria were incubated for 17-20 hours and the growth of the bacteria was continuously monitored via spectrophotometry at 600 nm (OD600). As bacterial growth progresses, OD600 values rise, and where the growth is inhibited OD600 values remain constant.
FIG. 3A presents: Salmonella serotype Typhimurium (ATCC 700408), a Multi-Drug Resistant (MDR) strain of bacteria were cultured in the presence of OMN6 or AMP.

[3] = system: Pseudomonas aeruginosa (ATCC BAA-2110); experiment: Growth of MDR bacteria monitored by OD600 under peptide, antibiotic or co-treatment; conditions: AMP alone 128 μg/ml; 17-20 h; FIG. 3B
[4] = system: Pseudomonas aeruginosa (ATCC BAA-2110); experiment: as above; conditions: FIG. 3B; for bacterial growth (OD600), stand-alone treatment / bacterial growth (OD600), combination: 17-20 h; for bacterial growth (OD600), combination: OMN6 32 μg/ml together with AMP 64 μg/ml, simultaneously
Protocol: FIG. 3B presents: Pseudomonas aeruginosa (ATCC BAA-2110), a Multi-Drug Resistant (MDR) strain of bacteria were cultured in the presence of either OMN6 or AMP. The bacteria were introduced into solutions of OMN6 (32 μg/ml) and AMP (64 μg/ml) at concentrations that were previously shown to be non-effective when added alone. […] The bacteria were then cultured in the presence of a co-treatment with a combination of OMN6 and AMP, and administered simultaneously, in the same non-effective concentrations described above.
as §1

[5] = OMN6 32 μg/ml together with AMP 128 μg/ml, FIG. 3A

## CC[C@H](C)[C@H](NC(=O)CNC(=O)[C@H](CCC(=O)O)NC(=O)[C@H](CO)NC(=O)[C@@H](NC(=O)[C@H](CCCNC(=N)N)NC(=O)[C@H](CCCCN)NC(=O)[C@H](CCCCN)NC(=O)[C@H](C)NC(=O)[C@H](CO)NC(=O)[C@H](CC(N)=O)NC(=O)[C@H](CCC(=O)O)NC(=O)[C@H](CC(C)C)NC(=O)[C@H](CCCCN)NC(=O)[C@H](CCCCN)NC(=O)[C@H](C)NC(=O)[C@@H](NC(=O)[C@H](CCCCN)NC(=O)[C@H](CO)NC(=O)[C@H](CC(C)C)NC(=O)[C@H](Cc1c[nH]c2ccccc12)NC(=O)[C@H](CO)NC(=O)[C@H](CS)NC(=O)[C@@H](N)CCSC)[C@@H](C)O)[C@@H](C)CC)C(=O)N[C@@H](C)C(=O)N[C@H](C(=O)N[C@@H](C)C(=O)N[C@H](C(=O)N[C@@H](CCC(N)=O)C(=O)NCC(=O)NCC(=O)N1CCC[C@H]1C(=O)N[C@@H](CCCNC(=N)N)C(=O)N[C@@H](CS)C(=O)O)[C@@H](C)CC)[C@@H](C)CC [OMN11] (H-MCSWLSKTAKKLENSAKKRISEGIAIAIQGGPRC-OH; N-terminus and C-terminus assumed)
[1]; OMN11 304 μg/ml together with IPM 32 μg/ml, FIG. 2
  bacterial growth (OD600), combination: complete and long-lasting antimicrobial effect; also recorded: powerful antimicrobial effect
[1]; OMN11 alone 304 μg/ml, FIG. 2
  bacterial growth (OD600), stand-alone treatment: did not inhibit bacterial growth and did not lead to bacterial death; also recorded: did not inhibit bacterial growth effectively

## NC[C@H]1O[C@H](O[C@H]2[C@H](O)[C@@H](O[C@H]3O[C@H](CO)[C@@H](O)[C@H](N)[C@H]3O)[C@H](N)C[C@@H]2N)[C@H](O)[C@@H](O)[C@@H]1O [KAN, Kanamycin, reference compound]
[2]; in co-treatment with OMN6 217 μg/ml, FIG. 1, read-out: Minimal Inhibitory Concentration (MIC) of co-treatment, KAN part
  MIC: 3.75 µg/mL

## CN(C)[C@@H]1C(O)=C(C(N)=O)C(=O)[C@@]2(O)C(O)=C3C(=O)c4c(O)cccc4[C@@](C)(O)[C@H]3C[C@@H]12 [TET, Tetracycline, reference compound]
[1]; in co-treatment with OMN6 32 μg/ml, FIG. 4, read-out: Minimal Inhibitory Concentration (MIC) of co-treatment, TET part
  MIC: 162 µg/mL

## C[C@@H](O)[C@H]1C(=O)N2C(C(=O)O)=C(SCCN=CN)C[C@H]12 [IPM, Imipenem, reference compound]
[1]; read-out: Minimal Inhibitory Concentration (MIC) of co-treatment, IPM part
  MIC: 32 µg/mL

## CC1(C)S[C@@H]2[C@H](NC(=O)[C@H](N)c3ccccc3)C(=O)N2[C@H]1C(=O)O [AMP, Ampicillin, reference compound]
[2]; AMP alone 128 μg/ml, FIG. 3A
  bacterial growth (OD600), stand-alone treatment: did not inhibit bacterial growth and did not lead to bacterial death; also recorded: did not inhibit bacterial growth effectively
[2]; [5]
  bacterial growth (OD600), combination: complete and long-lasting antimicrobial effect; also recorded: powerful antimicrobial effect
[2]; read-out: Minimal Inhibitory Concentration (MIC) of co-treatment, AMP part
  MIC: 128 µg/mL
[3]
  bacterial growth (OD600), stand-alone treatment: did not inhibit bacterial growth effectively
[4]; AMP alone 64 μg/ml
  bacterial growth (OD600), stand-alone treatment: did not inhibit bacterial growth and did not lead to bacterial death
[4]
  bacterial growth (OD600), combination: complete and long-lasting antimicrobial effect; also recorded: powerful antimicrobial effect
[4]; Pseudomonas aeruginosa, ATCCBAA2110, in co-treatment with OMN6 32 μg/ml, read-out: Minimal Inhibitory Concentration (MIC) of co-treatment, AMP part
  MIC: 64 µg/mL

## OMN6: modified H. cecropia Cecropin A peptide, MCKWKLFKKIEKVGQNIRDGIIKAGPAVAVVGQATQIAKC (ends and bridges not checked; cysteine pairing not given here)
[2]; [5]
  bacterial growth (OD600), combination: complete and long-lasting antimicrobial effect; also recorded: powerful antimicrobial effect
[2]; OMN6 217 μg/ml together with KAN 3.75 μg/ml, FIG. 1
  bacterial growth (OD600), combination: complete and long-lasting antimicrobial effect; also recorded: powerful antimicrobial effect
[2]; OMN6 alone 32 μg/ml, FIG. 3A
  bacterial growth (OD600), stand-alone treatment: did not inhibit bacterial growth and did not lead to bacterial death; also recorded: did not inhibit bacterial growth effectively
[2]; OMN6 alone 32 μg/ml, FIG. 4
  bacterial growth (OD600), stand-alone treatment: did not inhibit bacterial growth and did not lead to bacterial death; also recorded: did not inhibit bacterial growth effectively
[2]; in co-treatment with AMP 128 μg/ml, FIG. 3A
  Minimal Inhibitory Concentration (MIC) of co-treatment, OMN6 part: 32 µg/mL
[2]; in co-treatment with KAN 3.75 μg/ml, FIG. 1
  Minimal Inhibitory Concentration (MIC) of co-treatment, OMN6 part: 217 µg/mL
[4]
  bacterial growth (OD600), combination: complete and long-lasting antimicrobial effect; also recorded: powerful antimicrobial effect
[4]; OMN6 alone 32 μg/ml
  bacterial growth (OD600), stand-alone treatment: did not inhibit bacterial growth and did not lead to bacterial death; also recorded: did not inhibit bacterial growth effectively
[4]; in co-treatment with AMP 64 μg/ml
  Minimal Inhibitory Concentration (MIC) of co-treatment, OMN6 part: 32 µg/mL
[1]; OMN6 32 μg/ml together with TET 16 μg/ml, FIG. 4
  bacterial growth (OD600), combination: complete and long-lasting antimicrobial effect; also recorded: powerful antimicrobial effect
[1]; OMN6 alone 217 μg/ml, FIG. 1
  bacterial growth (OD600), stand-alone treatment: did not inhibit bacterial growth and did not lead to bacterial death; also recorded: did not inhibit bacterial growth effectively
